Experiments:
[1] = Inhibition of [3H]- RTX binding to Vanilloid receptors from pig spinal cord
[2] = Inhibitory constant for RTX binding to porcine spinal cord

## COc1cc(CC(=O)OCC2=C[C@H]3C4C(C)(C)[C@]4(OC(C)=O)[C@H](OC(=O)Cc4ccccc4)[C@@H](C)[C@]3(O)[C@@H]3C=C(C)C(=O)[C@@]3(O)C2)ccc1O (stereo partly drawn) [Phenyl-acetic acid (1aR,1bS,4aR,7aS,7bS,8R,9R,9aS)-9a-acetoxy-4a,7b-dihydroxy-3-[2-(4-hydroxy-3-methoxy-phenyl)-acetoxymethyl]-1,1,6,8-tetramethyl-5-oxo-1a,1b,4,4a,5,7a,7b,8,9,9a-decahydro-1H-cyclopropa[3,4]benzo[1,2-e]azulen-9-yl ester]
[1]
  Ki: 2.1 µM
[2]
  Ki: 0.00012 µM
